Where “and” joins values, the source holds several entries; their conditions need not be identical. Equal entries are not always repeated. Where two headings read alike, the source gives them in different places.
Key:
ABS parasites = test system: ABS parasites; set-up: method as in PMID 28674055; settings: read-out: IC50 against the ABS parasites, previous study; cited from earlier work
recombinant PfMQO = recombinant PfMQO (Plasmodium falciparum, UniProt C6KT09); assay: biochemical; settings: for inhibition at 10 µM: read-out: Inhibition (%) against recombinant PfMQO; for IC50: serial dilution 10 to 0.0003 μM, quadruplicate, ± standard deviation
Sequence of recombinant PfMQO (C6KT09 entry or part of it): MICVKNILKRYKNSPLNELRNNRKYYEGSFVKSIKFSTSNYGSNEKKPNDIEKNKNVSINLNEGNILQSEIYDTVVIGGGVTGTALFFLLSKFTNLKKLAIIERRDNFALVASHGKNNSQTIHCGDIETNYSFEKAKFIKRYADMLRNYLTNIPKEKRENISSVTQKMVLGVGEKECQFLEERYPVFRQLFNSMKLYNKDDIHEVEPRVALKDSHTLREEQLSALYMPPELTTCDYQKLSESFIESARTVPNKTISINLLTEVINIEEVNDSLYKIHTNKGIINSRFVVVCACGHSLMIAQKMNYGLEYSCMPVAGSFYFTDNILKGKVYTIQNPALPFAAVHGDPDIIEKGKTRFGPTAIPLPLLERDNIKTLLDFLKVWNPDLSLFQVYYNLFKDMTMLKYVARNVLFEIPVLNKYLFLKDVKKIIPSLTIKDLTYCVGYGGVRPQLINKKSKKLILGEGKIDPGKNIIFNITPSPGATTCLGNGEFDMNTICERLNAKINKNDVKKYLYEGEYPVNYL

P. falciparum 3D7 strain = assay: Plasmodium falciparum growth inhibition assay (diaphorase-coupled LDH assay, 72 hours); format: cell-based; settings: for IC50: Plasmodium falciparum, read-out: IC50 growth of P. falciparum 3D7 strain in culture (ABS); for Growth inhibition of parasite cells (result in words): P. falciparum 3D7, LDH assay
Protocol: Human RBCs were received from Japanese Red Cross Society. The experiments were performed under the guidelines of the ethical committee in The University of Tokyo (permission no. 10050) and Nagasaki University (permission no. 19). Parasite culture was synchronized with 5% (w/v) D-sorbitol as previously described. Ring stage parasites (100 μL/well) were placed in a 96-well plate at 0.3% parasitemia. […] As a control, wells containing culture medium and RBCs alone were prepared. […] The absorbance of each well was measured at 655 nm using SpectraMax Paradigm® Multi-Mode microplate reader (Molecular Devices, San Jose, CA, USA).

HepG2 = test system: HepG2; set-up: method as in earlier work; settings: ref https://www.mmv.org/mmv-open/pathogen-box/about-pathogen-box#composition; cited from earlier work
[1] = test system: stage IV gametocyte cells; set-up: method as in PMID 28674055; settings: cited from earlier work
Cryptococcus neoformans = settings: recently reported; cited from earlier work
Candida albicans = settings: recently reported; cited from earlier work
[2] = 10 μM compound, average of 4 independent experiments
[3] = read-out: IC50 against recombinant PfMQO
[4] = 3D7, LDH assay, 72 hours incubation, average of three independent experiments ± SD

| inhibition at 10 µM (recombinant PfMQO; [2]) [%] | IC50 (recombinant PfMQO; [3]) | IC50 (P. falciparum 3D7 strain; [4]) [µM] | SMILES | inhibition at 10 µM (recombinant PfMQO) [%] | Growth inhibition of parasite cells (result in words) (P. falciparum 3D7 strain) | also measured |
| --- | --- | --- | --- | --- | --- | --- |
| 76 | < 5 µM and 3.96 µM | 0.46 | N=C(N)Nc1ccc(-c2ccc(-c3ccc(NC(=N)N)cc3Cl)o2)c(Cl)c1 [MMV688179] |  |  | IC50 (ABS parasites): 0.59 µM; HepG2 cytotoxicity CC20 (HepG2): 6.8 µM; Activity against the stage IV gametocyte cells [1]: active |
|  |  |  | COc1ccc(C2=NN(C3CCCCCC3)C(=O)C3CC=CCC23)cc1OCCCCOc1ccc(-c2nn[nH]n2)cc1 (stereo not drawn) [MMV690027] | 98.2 |  | IC50 (P. falciparum 3D7 strain; 3D7, 72 h): 16.2 µM |
| 98.5 | < 5 µM and 0.343 µM |  | O=C(Nc1nnc(S)s1)c1cc(Br)ccc1Cl [MMV676492] |  | failed to inhibit the growth |  |
| 80.5 | < 5 µM and 1.15 µM | 1.03 | N=C(N)Nc1ccc(-c2ccc(-c3ccc(NC(=N)N)c(Cl)c3)o2)cc1Cl [MMV688271] |  |  | IC50 (ABS parasites): 1.21 µM; Antifungal effect against Cryptococcus neoformans (Cryptococcus neoformans): antifungal effect; HepG2 cytotoxicity CC20 (HepG2): 13.5 µM; Antifungal effect against Candida albicans (Candida albicans): antifungal effect |

| SMILES | inhibition at 10 µM (recombinant PfMQO; [2]) [%] | IC50 (recombinant PfMQO; [3]) | IC50 (P. falciparum 3D7 strain; [4]) [µM] | inhibition at 10 µM (recombinant PfMQO) [%] | Growth inhibition of parasite cells (result in words) (P. falciparum 3D7 strain) | also measured |
| --- | --- | --- | --- | --- | --- | --- |
| COc1ccc(C2=NN(C3CCCCCC3)C(=O)C2(C)C)cc1OCCCCOc1ccc(-c2nnn[nH]2)cc1 [MMV690028] |  |  | 6.05 | 86.7 |  | IC50 (recombinant PfMQO; IC50 against recombinant PfMQO): < 5 µM and 1.1 µM |
| O=C(NCCc1c[nH]c2ccccc12)c1cc2ccccc2oc1=O [MMV676539] |  | < 5 µM and 4.06 µM |  | 65.6 | failed to inhibit the growth |  |
| Cc1cc(C)cc(COc2ccc3c(C)c(CCC(=O)O)c(=O)oc3c2C)c1 [MMV676476] |  | < 5 µM and 3.57 µM |  | 63.2 | failed to inhibit the growth |  |
